Experimental data: article PMC11801715, “Activating PKC-ε induces HIV expression with improved tolerability” (PLOS Pathogens, 2025)

Key:
[1] = test system: classical and novel PKC isoforms; assay: Estimated PKC inhibition in cell culture from Z'-LYTE IC50 and free fraction; assay type: biochemical; details: 5 µM, 46% free in cell culture media
Text: (§1) In this assay, phosphorylation of a synthetic FRET-peptide substrate protects the peptide from cleavage by the development reagent and prevents disruption of the FRET signal.

PKC-θ = PKC-θ (Homo sapiens, UniProt Q04759); assay: Z'-LYTE kinase activity assay; assay type: biochemical; details: ATP at Kmapp, 2 μM peptide substrate; read-out: IC50 for novel PKC isoforms, PKC-θ
Sequence of PKC-θ (Q04759 whole entry, canonical isoform): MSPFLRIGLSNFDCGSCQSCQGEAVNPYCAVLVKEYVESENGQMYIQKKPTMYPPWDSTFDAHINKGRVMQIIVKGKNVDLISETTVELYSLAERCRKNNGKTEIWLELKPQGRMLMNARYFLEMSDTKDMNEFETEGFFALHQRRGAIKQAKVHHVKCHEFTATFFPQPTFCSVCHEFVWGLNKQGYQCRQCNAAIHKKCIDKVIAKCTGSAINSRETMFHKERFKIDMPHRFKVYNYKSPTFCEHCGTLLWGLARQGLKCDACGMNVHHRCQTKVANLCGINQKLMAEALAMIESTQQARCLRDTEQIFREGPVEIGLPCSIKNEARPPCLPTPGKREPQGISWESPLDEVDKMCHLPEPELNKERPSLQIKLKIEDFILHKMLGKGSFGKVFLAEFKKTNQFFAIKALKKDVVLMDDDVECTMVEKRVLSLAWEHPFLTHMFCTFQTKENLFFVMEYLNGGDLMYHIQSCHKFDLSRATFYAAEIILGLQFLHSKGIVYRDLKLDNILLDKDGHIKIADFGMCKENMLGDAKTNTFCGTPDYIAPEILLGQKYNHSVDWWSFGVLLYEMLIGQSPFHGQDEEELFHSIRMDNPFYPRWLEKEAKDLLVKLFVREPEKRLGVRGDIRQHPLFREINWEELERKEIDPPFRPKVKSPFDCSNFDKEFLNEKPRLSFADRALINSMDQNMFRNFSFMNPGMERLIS
Text: as §1

PKC-β1 = PKC-β1 (Homo sapiens, UniProt P05771); assay: Z'-LYTE kinase activity assay; assay type: biochemical; details: ATP at Kmapp, 2 μM peptide substrate; read-out: IC50 for classical PKC isoforms, PKC-β1
Sequence of PKC-β1 (P05771 whole entry, canonical isoform): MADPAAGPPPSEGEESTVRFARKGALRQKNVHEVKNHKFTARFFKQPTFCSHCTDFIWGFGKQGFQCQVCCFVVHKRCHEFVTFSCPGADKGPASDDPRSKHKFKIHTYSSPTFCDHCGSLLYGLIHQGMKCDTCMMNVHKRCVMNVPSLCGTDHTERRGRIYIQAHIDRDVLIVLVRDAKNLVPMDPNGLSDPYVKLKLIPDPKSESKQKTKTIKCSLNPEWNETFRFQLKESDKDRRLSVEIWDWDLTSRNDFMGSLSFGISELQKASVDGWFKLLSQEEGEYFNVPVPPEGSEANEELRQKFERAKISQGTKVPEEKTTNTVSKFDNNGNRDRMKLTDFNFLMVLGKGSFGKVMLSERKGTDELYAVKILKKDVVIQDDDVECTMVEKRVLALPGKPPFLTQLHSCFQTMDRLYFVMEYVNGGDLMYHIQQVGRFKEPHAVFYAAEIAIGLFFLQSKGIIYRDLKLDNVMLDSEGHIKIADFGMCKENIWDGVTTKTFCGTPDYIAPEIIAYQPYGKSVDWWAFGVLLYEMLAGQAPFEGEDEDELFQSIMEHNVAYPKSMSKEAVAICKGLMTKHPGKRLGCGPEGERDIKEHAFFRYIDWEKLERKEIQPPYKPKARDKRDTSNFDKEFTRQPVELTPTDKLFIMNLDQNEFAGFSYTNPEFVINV
Text: as §1

PKC-ε = target: T1, PKC-ε (Homo sapiens, UniProt Q02156); assay: Z'-LYTE kinase activity assay; assay type: biochemical
T1 sequence (Q02156 1-737): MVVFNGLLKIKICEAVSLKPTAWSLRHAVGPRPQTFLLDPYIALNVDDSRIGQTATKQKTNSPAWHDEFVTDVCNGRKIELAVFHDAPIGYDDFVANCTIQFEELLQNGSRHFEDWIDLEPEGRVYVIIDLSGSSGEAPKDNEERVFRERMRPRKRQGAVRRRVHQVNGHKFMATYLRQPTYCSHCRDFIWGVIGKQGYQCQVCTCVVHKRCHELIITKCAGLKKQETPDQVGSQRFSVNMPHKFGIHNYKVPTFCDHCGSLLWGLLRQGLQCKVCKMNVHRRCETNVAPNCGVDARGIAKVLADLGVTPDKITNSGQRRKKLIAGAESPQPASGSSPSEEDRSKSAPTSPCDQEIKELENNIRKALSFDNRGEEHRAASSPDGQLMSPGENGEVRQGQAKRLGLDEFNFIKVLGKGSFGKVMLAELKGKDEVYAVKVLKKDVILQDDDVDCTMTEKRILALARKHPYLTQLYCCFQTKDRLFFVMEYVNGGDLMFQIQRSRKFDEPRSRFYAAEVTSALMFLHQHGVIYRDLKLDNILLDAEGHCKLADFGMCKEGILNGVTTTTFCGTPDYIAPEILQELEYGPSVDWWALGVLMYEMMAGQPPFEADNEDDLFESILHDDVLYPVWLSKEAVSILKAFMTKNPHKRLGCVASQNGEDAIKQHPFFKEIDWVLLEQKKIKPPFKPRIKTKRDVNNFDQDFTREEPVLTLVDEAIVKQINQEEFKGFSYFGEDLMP
Text: as §1

PKC-γ = PKC-γ (Homo sapiens, UniProt P05129); assay: Z'-LYTE kinase activity assay; assay type: biochemical; details: ATP at Kmapp, 2 μM peptide substrate; read-out: IC50 for classical PKC isoforms, PKC-γ
Text: as §1

PKC-δ = PKC-δ (Homo sapiens, UniProt Q05655); assay: Z'-LYTE kinase activity assay; assay type: biochemical; details: ATP at Kmapp, 2 μM peptide substrate; read-out: IC50 for novel PKC isoforms, PKC-δ
Sequence of PKC-δ (Q05655 whole entry, canonical isoform): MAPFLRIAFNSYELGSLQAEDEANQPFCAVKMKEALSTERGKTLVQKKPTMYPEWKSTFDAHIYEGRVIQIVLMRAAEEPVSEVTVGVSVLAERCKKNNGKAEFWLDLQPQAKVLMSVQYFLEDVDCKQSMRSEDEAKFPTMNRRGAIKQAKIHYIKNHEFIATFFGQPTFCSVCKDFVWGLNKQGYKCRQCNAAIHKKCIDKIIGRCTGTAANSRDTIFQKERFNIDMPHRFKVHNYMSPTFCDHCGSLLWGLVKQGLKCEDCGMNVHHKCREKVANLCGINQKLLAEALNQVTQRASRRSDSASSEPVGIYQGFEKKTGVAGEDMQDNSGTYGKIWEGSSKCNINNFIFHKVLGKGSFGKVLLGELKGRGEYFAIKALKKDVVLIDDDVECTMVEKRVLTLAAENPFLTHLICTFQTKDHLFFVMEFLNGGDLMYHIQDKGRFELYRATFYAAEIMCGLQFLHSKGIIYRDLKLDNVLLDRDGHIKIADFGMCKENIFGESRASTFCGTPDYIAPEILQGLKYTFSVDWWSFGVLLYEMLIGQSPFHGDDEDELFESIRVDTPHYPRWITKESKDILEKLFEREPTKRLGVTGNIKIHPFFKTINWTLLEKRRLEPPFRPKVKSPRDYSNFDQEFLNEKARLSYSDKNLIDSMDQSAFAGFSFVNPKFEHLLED
Text: as §1

PKC-β2 = PKC-β2 (Homo sapiens, UniProt P05771); assay: Z'-LYTE kinase activity assay; assay type: biochemical; details: ATP at Kmapp, 2 μM peptide substrate; read-out: IC50 for classical PKC isoforms, PKC-β2
Sequence of PKC-β2 (P05771 1-673 isoform P05771-2): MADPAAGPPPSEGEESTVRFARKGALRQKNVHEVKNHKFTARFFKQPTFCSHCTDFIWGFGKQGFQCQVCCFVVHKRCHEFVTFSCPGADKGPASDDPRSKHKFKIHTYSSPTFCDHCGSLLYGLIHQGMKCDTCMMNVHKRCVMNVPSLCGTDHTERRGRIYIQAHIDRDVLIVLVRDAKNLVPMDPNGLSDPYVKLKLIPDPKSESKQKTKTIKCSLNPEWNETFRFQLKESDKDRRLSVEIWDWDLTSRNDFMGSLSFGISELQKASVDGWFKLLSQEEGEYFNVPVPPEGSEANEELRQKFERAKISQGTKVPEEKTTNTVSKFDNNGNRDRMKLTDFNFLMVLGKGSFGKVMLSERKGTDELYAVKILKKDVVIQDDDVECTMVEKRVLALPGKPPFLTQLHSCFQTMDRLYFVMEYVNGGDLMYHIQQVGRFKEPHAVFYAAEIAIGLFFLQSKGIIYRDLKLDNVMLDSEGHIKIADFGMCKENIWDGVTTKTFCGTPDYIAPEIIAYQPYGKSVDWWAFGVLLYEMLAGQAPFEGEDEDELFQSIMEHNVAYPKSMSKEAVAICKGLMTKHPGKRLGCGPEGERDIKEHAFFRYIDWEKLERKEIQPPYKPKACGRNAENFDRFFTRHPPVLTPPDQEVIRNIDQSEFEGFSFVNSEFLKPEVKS
Text: as §1

PKC-η = PKC-η (Homo sapiens, UniProt P24723); assay: Z'-LYTE kinase activity assay; assay type: biochemical; details: ATP at Kmapp, 2 μM peptide substrate; read-out: IC50 for novel PKC isoforms, PKC-η
Sequence of PKC-η (P24723 whole entry, canonical isoform): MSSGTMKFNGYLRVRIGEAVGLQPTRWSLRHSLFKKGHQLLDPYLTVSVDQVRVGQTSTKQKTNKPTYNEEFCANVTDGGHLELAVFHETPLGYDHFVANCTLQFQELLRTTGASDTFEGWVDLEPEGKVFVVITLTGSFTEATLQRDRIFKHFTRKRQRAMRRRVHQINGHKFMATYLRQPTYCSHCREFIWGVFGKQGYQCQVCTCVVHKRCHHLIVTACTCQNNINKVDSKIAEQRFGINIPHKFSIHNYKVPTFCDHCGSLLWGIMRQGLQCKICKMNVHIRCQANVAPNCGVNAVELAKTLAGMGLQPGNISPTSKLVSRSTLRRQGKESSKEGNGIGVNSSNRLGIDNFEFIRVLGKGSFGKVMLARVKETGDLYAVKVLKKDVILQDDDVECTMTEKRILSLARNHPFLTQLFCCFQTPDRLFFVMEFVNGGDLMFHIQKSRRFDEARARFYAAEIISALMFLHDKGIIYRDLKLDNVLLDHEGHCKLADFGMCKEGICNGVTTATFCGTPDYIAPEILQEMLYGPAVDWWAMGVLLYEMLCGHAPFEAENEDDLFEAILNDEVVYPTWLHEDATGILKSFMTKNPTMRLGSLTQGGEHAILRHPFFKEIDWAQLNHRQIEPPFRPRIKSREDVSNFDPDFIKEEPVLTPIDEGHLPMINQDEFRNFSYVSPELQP
Text: as §1

PKC-α = PKC-α (Homo sapiens, UniProt P17252); assay: Z'-LYTE kinase activity assay; assay type: biochemical; details: ATP at Kmapp, 2 μM peptide substrate; read-out: IC50 for classical PKC isoforms, PKC-α
Text: as §1

[2] = test system: latent HIV in total CD4+ T cells; assay: microbe, parasite or virus in culture; assay type: cell-based, HIV-1; details: inhibitor 5 μM with DMSO, no agonist
Procedure: Peripheral blood mononuclear cells and CD4^+ T cells used for evaluating PKC agonist and inhibitor molecules were isolated from leukopaks of selected participants as described previously. Isolated CD4^+ T cells (5×10^6 cells/well) were added to 24-well tissue culture plates in 2.5 mL of RPMI medium containing 100 nM each of elvitegravir and efavirenz. Cells were stimulated with DMSO (vehicle control) or the indicated concentrations of PKC agonist molecules. Cells were pretreated with PKC isoform inhibitors (Selleck Chemicals) for 1 hour before addition of PKC agonist at indicated concentrations and maintained at 37 °C, 5% CO2 for 3 days. Cell supernatants from each well were analyzed using the Cobas […] system for quantification of HIV-1 RNA using the HIV-1 test v2.0 kit (Roche Diagnostics).

[3] = Free fraction in cell culture media; assay type: in vitro ADME

## CN(C)CCCn1cc(C2=C(c3c[nH]c4ccccc34)C(=O)NC2=O)c2ccccc21 [Gӧ-6850]
[1]
  estimated inhibition of all classical and novel isoforms, except PKC-ε: > 90%
PKC-θ
  IC50: 3 nM
PKC-β1
  IC50: 0.457 nM
PKC-ε; 5 µM, 46% free in cell culture media, read-out: estimated inhibition of PKC-ε
  inhibition at 5 µM: 70%
PKC-ε; ATP at Kmapp, 2 μM peptide substrate, read-out: IC50 for novel PKC isoforms, PKC-ε
  IC50: 67.6 nM
PKC-γ
  IC50: 2.18 nM
PKC-δ
  IC50: 9.63 nM
PKC-β2
  IC50: 0.331 nM
PKC-η
  IC50: 11.3 nM
PKC-α
  IC50: 2.53 nM
[2]
  HIV RNA Fold∆ over DMSO, Geomean: 1.2 fold
[3]
  free in cell culture media: 46%
